Data published in patent US10583209B2, “Hyperpolarized 1-13C-1,1-bis(acetoxy(methyl))-2,2′-cyclopropane as metabolic marker for MR” (BRACCO IMAGING S.P.A., priority 2013, dated 2020).
Values belong to the compound of their own block, whether it stands above or below them.

Experiments:
[1] = Liquid-state 13C-NMR after dissolution of hyperpolarized sample (T1, polarization, hydrolysis); format: physicochemical; conditions: for T1, 37 C. 14.1 T: 13C longitudinal relaxation time, in s (unit assumed)
Experimental: C) The sample was dissolved in 5 ml phosphate buffer (40 mM, pH 7.3).

[2] = system: Human prostate cancer cells (PC-3); assay: Carboxyl esterase CE-2 activity by in cell DNP conversion in PC-3 cells, co-polarized with 1-13C-pyruvate; format: cell-based; conditions: for AUC (arb. Units), area under the metabolic curve: 10 million cells, approx. 3.5 mM of each substrate, 37 C
Experimental: (§1) The experiments were performed with a co-polarization of 1-^13C-1,1-Bis(acetoxy(methyl-d2))-2,2′-d4-cyclopropane and 1-^13C-pyruvic acid in equal amounts of compounds (30 μmol) resulting in a concentration of approx. 3.5 mM of each substrate in the experiments. The DNP preparation of 1-^13C-1,1-Bis(acetoxy(methyl-d2))-2,2′-d4-cyclopropane was performed as described in example 2 and the DNP preparation of 1-^13C-pyruvate was performed as described in WO 2006/011809. The two substrates were co-polarized without mixing the substrates.
(§2) Human cancer cells (PC-3) were grown in RPMI+10% FBS and antibiotics. Following trypsin harvesting 10 million cells were redissolved in 500 μl phosphate buffer (PBS) and transferred to a 10 mm NMR tube and placed with connecting tubing in a 14.1 T magnet at 37° C.
(§3) Following dissolution in 5 ml phosphate buffer (40 mM pH 7.3) with addition of 2.5 μl NaOH to neutralize the pyruvic acid 2 ml of the substrate mixture was injected into 10 million cells in suspension. A series of 20 degree pulses every 2 s (56 scans in total) was acquired. The acquisition was started just before injection of the hyperpolarized substrate. Data are presented as metabolite signals as a function of time or as area under the curve of the metabolite signals.

[3] = system: Rat liver cancer cells (Morris7777); assay: In cell DNP conversion in rat liver cancer cells, co-polarized with 1-13C-pyruvate; format: cell-based; conditions: for AUC (arb. Units), area under the metabolic curve: 10 million cells, approx. 3.5 mM of each substrate, 37 C
Experimental: as §1
Rat liver cancer cells (Morris777) were grown in RPMI+10% FBS and antibiotics. Following trypsin harvesting 10 million cells were redissolved in 500 μl phosphate buffer (PBS) and transferred to a 10 mm NMR tube and placed with connecting tubing in a 14.1 T magnet at 37 C.
as §3

[4] = system: Human prostate cancer cells (PC-3) in comparison to healthy human prostate cells (PNT-1A); assay: In cell DNP conversion in PC-3 cells compared with healthy PNT-1A cells; format: cell-based; conditions: 10 million cells, approx. 3.5 mM substrate
Experimental: The experiments were performed with a polarization of 1-^13C-1,1-Bis(acetoxy(methyl-d2))-2,2′-d4-cyclopropane (30 μmol) resulting in a concentration of approx. 3.5 mM of this substrate in the experiments. The DNP preparation of 1-^13C-1,1-Bis(acetoxy(methyl-d2))-2,2′-d4-cyclopropane was performed as described in example 2.
as §2, with “Human prostate” for “Human”, “(PC-3) or immortalized human prostate healthy cells” for “(PC-3)”
as §3, with “7.3),” for “7.3) with addition of 2.5 μl NaOH to neutralize the pyruvic acid”

[5] = DNP hyperpolarization in the solid state; format: physicochemical; conditions: DNP at 1.2 K, 3.35 T, microwave 93.900 GHz
Experimental: A) Finland radical, carboxylic acid form (0.7 mg, 0.67 μmol) was dissolved in 1-^13C-1,1-Bis(acetoxy(methyl-d2))-2,2′-d4-cyclopropane (45 μl, 50.7 mg, 0.27 mmol). To the solution was added a DMSO solution of the gadolinium complex ([alfa1,alfa4,alfa7-tris[(phenylmethoxy)methyl]-1,4,7,10-tetraazacyclododecane-1,4,7,10-tetraacetato(4-)]gadolinate(1-)]hydrogen) (0.75 mg of a 100 μmol/g solution). The concentration of radical and gadolinium were 15 mM and 1.6 mM respectively.
B) 30 μmol of a 1-^13C-1,1-Bis(acetoxy(methyl-d2))-2,2′-d4-cyclopropane sample made following the description in example 2.A was hyperpolarized. The composition was hyperpolarised under DNP conditions at 1.2 K in a 3.35 T magnetic field under irradiation with microwave (93.900 GHz). The polarization build-up constant was 750 s. The solid-state polarization was approx. 15%.

[6] = system: prostate of healthy Copenhagen rats; assay: DNP-MRI conversion in the healthy prostate of living rats; format: in vivo, rat; conditions: intravenous, about 0.4 mmol/kg, n=2 rats
Experimental: DNP-MRI experiment has been performed on 2 healthy Copenhagen rats, 9 weeks old, with average weight of 180 g.
0.24 mmol of a 1-^13C-1,1-Bis(acetoxy(methyl-d2))-2,2′-d4-cyclopropane sample prepared following the description in Example 2A was hyperpolarized according to the conditions reported in example 2.B. The solid sample was then dissolved in 5 ml TRIS buffer (100 mM, pH 7.7) to obtain a hyperpolarized solution with 48 mM substrate concentration and a pH of 7.
2.8 ml of the dissolved hyperpolarized 1-^13C-1,1-Bis(acetoxy(methyl-d2))-2,2′-d4-cyclopropane solution was injected intravenously at an injection rate of about 0.25 mL/s through a catheter placed in the tail vein of the animal, resulting in a total administered close of about 0.4 mmol/kg. A time series of 64 NMR spectra separated by 3 s and generated by 10° radiofrequency pulses was acquired starting from 15 s before injection of the hyperpolarized substrate. In order to follow the whole metabolic fate of the molecules and the decay of the hyperpolarized signal. The ^13C MR signal was collected by a 20 mm surface coil placed around the prostate. Spatial localization of the signal has been achieved by combining the limited sensitivity volume of the receiving coil with a slice selective spectroscopic sequence including a single gradient kept on only during the excitation period.

Compound: O=[13C](O)CC(O)[13C](=O)O (centres unmarked) [1,4-13C2-malate]
T1, 37 C. 14.1 T [1]: 30 ± 3

Compound: C[C@H](N)[13C](=O)O [1-13C-alanine]
T1, 37 C. 14.1 T [1]: 31 ± 2

Compound: C[C@H](O)[13C](=O)O [1-13C-lactate, reference compound]
AUC (arb. Units), area under the metabolic curve [2]: 3766 arb. Units
T1, 37 C. 14.1 T [1]: 40 ± 3
AUC (arb. Units), area under the metabolic curve [3]: 282 arb. Units

Compound: [2H]C([2H])(O)[13C]1(C([2H])([2H])O)C([2H])([2H])C1([2H])[2H] [1-^13C-1,1-(dihydroxy(methyl-d2))-2,2′-d4-cyclopropane]
AUC (arb. Units), area under the metabolic curve [3]: 1559 arb. Units

Compound: [2H]C([2H])(OC(C)=O)[13C]1(C([2H])([2H])OC(C)=O)C([2H])([2H])C1([2H])[2H] [1-^13C-1,1-Bis(acetoxy(methyl-d2))-2,2′-d4-cyclopropane]
metabolic conversion relative to hyperpolarized 1-13C pyruvate, comparing the maximum metabolite signal [2]: more than 3 times
liquid state polarization ([1]; 12 s after dissolution): 13%
T1, 37 C. 14.1 T [1]: 85 ± 4
liquid state T1 ([1]; 14.1 T and 37 C, phosphate buffer 40 mM pH 7.3): approx. 85 s
hydrolysis in the dissolution process ([1]; dissolved in 5 ml phosphate buffer (40 mM, pH 7.3)): not hydrolysed
metabolic conversion in diseased cells (PC-3) relative to healthy cells (PNT-1A) [4]: approx. 6 times
metabolic conversion relative to hyperpolarized 1-13C pyruvate, comparing the maximum metabolite signal [3]: approx. 15 times
polarization build-up constant [5]: 750 s
solid-state polarization [5]: approx. 15%
uptake and metabolic conversion in rat prostate in vivo [6]: taken up by prostate cells and converted into its hyperpolarized metabolites

Compound: [2H]C([2H])(O)[13C]1(C([2H])([2H])OC(C)=O)C([2H])([2H])C1([2H])[2H] [1-^13C-1-(acetoxy(methyl-d2))-1-(hydroxy(methyl-d2))-2,2′-d4-cyclopropane]
AUC of metabolite relative to that of 1-13C-lactate [2]: ~6 times
AUC (arb. Units), area under the metabolic curve [2]: 20550 arb. Units
AUC of metabolite relative to that of 1-13C-lactate [3]: ~30 times
AUC (arb. Units), area under the metabolic curve [3]: 43480 arb. Units

Compound: [2H]C([2H])(O)[13C]([2H])([2H])[N+](C)(C)C [2-13C-1,1,2,2-d4-choline]
T1, 37 C. 14.1 T [1]: 43 ± 4

Compound: N[C@@H](CC[13C](N)=O)C(=O)O [5-13C-glutamine]
T1, 37 C. 14.1 T [1]: 22 ± 2

Compound: O[13CH2][13C@H]1O[13CH](O)[13C@H](O)[13C@@H](O)[13C@@H]1O (some centres unmarked) [13C6-glucose]
T1, 37 C. 14.1 T [1]: 15 ± 2

Other lines, results leading:

T1, 37 C. 14.1 T [1]: 27 ± 2
Compound: 1,3-ethyl acetoacetate

T1, 37 C. 14.1 T [1]: 35 ± 3
Compound: O=[13C](O)/C=C/[13C](=O)O [1,4-13C2-Fumarate]

T1, 37 C. 14.1 T [1]: 35 ± 4
Compound: CC([13CH3])CC(=O)C(=O)O (centres unmarked) [1-13C-2-ketoisocaproate]

T1, 37 C. 14.1 T [1]: 50 ± 3
Compound: C[13C](=O)O [1-13C-acetate]

T1, 37 C. 14.1 T [1]: 20 ± 2
Compound: OC[C@H]1O[13CH](O)[C@H](O)[C@@H](O)[C@@H]1O (some centres unmarked) [1-13C-glucose]

T1, 37 C. 14.1 T [1]: 45 ± 4
Compound: CC(=O)[13C](=O)O [1-13C-pyruvate]
